One experiment deals with Nakaseomyces glabratus. Kind of experiment: Antifungal activity against Candida glabrata 4408 assessed as microbial growth inhibition. It counts as functional.
In experiment [1] the test system is Candida albicans. Put plainly: Antifungal activity against Candida albicans SC5314 assessed as fungal growth inhibition incubated for 24 hrs by broth dilution method. The format is functional. For orientation: Broth dilution looks for growth in wells or tubes with falling amounts of substance.
For experiment [2], the system named is Candida albicans. Kind of experiment: Synergetic antifungal activity against Candida albicans 0304103 assessed as microbial growth inhibition incubated for 24 hrs in the presence of (S)-N-Hydroxy-4-(2-(1-methyl-6-phenyl-4H-benzo[f](1,2,4)-triazolo-[4,3-a],[1,4]diazepin-4-yl)acetamido)benzamide by checkerboard microdilution method. The format is functional.

Experiment [3] has as its system Candida albicans. Put plainly: Synergetic antifungal activity against Candida albicans 0304103 assessed as microbial growth inhibition incubated for 24 hrs in the presence of (S)-N-Hydroxy-2-(4-(2-(l-methyl-6-phenyl-4H-benzo[f](1,2,4)-triazolo-[4,3-a][1,4]diazepin 4-yl)acetamido)phenyl)acetamide by checkerboard microdilution method. It counts as functional.
Experiment [4] deals with Candida albicans. Put plainly: Synergetic antifungal activity against Candida albicans 0304103 assessed as microbial growth inhibition incubated for 24 hrs in the presence of (S)-N-Hydroxy-4-(2-(1-methyl-6-(p-toly1)-4H-benzo[f](1,2,4)-triazolo-(4,3-a][1,4]diazepin-4-yl)acetamido)benzamide by checkerboard microdilution method. The format is functional.
Experiment [5] relates to Candida albicans. Kind of experiment: Synergetic antifungal activity against Candida albicans 0304103 assessed as microbial growth inhibition incubated for 24 hrs in the presence of (S)-N-Hydroxy-4-((2-(1-methyl-6-(p-toly1)-4H-benzo[f](1,2,4)-triazolo-(4,3-a][1,4]diazepin-4-y1)acetamido)methyl)benzamide by checkerboard microdilution method. The format is functional.
The subject of experiment [6] is Candida albicans. Kind of experiment: Synergetic antifungal activity against Candida albicans 0304103 assessed as microbial growth inhibition incubated for 24 hrs in the presence of (S)-N-Hydroxy-2-(4-(2-(1-methyl-6-(p-toly1)-4H-benzo[f](1,2,4)-triazolo[4,3-a][1,4]diazepin-4-yl)acetamido)phenyl)acetamideby checkerboard microdilution method. It counts as functional.

Experiment [7] relates to Candida albicans. Put plainly: Synergetic antifungal activity against Candida albicans 0304103 assessed as microbial growth inhibition incubated for 24 hrs in the presence of (S)-4-(2-(6-(4-Chlorophenyl)-1-methyl-4H-benzo[f](1,2,4)-triazolo(4,3-a)(1,4)diazepin-4-yl)acetamido)-N-hydroxybenzamide by checkerboard microdilution method. The format is functional.
Experiment [8] has as its system Candida albicans. Put plainly: Synergetic antifungal activity against Candida albicans 0304103 assessed as microbial growth inhibition incubated for 24 hrs in the presence of (S)-2-(6-(4-Chlorophenyl)-1-methyl-4H-benzo[f][1,2,4]triazolo-14,3-a)(1,4)diazepin-4-yl)-N-(4-(2-(hydroxyamino)-2-oxoethyl)-phenyl)acetamide by checkerboard microdilution method. The format is functional.

The subject of experiment [9] is Candida albicans. Put plainly: Synergetic antifungal activity against Candida albicans 0304103 assessed as microbial growth inhibition incubated for 24 hrs in the presence of (S,E)-3-(4-(2-(6-(4-Chlorophenyl)-1-methy1-4H-benzo[f][1,2,4]-triazolo(4,3-a)[1,4]diazepin-4-yl)acetamido)phenyl)-N-hydroxyacrylamide by checkerboard microdilution method. It counts as functional.

In experiment [10] the test system is Candida albicans. Put plainly: Synergetic antifungal activity against Candida albicans 0304103 assessed as microbial growth inhibition incubated for 24 hrs in the presence of (S)-4-((2-(8-Chloro-6-(2-chloropheny1)-1-methyl-4H-benzo[f]-[1,2,4]-triazolo(4,3-a)(1,4]diazepin-4-yl)acetamido)methyl)-N-hydroxy-benzamide by checkerboard microdilution method. The format is functional.

The test system of experiment [11] is Candida albicans. Put plainly: Synergetic antifungal activity against Candida albicans 0304103 assessed as microbial growth inhibition incubated for 24 hrs in the presence of (S)-4-((2-(6-(4-Chlorophenyl)-1-methyl-7,8,9,10-tetrahydro-4H-benzo-(4,5)thieno[3,2-f][1,2,4]triazolo(4,3-a)(1,4)diazepin-4-yl)-acetamido)-methyl)-N-hydroxybenzamide by checkerboard microdilution method. It counts as functional.

Experiment [12] relates to Candida albicans. Put plainly: Synergetic antifungal activity against Candida albicans 0304103 assessed as microbial growth inhibition incubated for 24 hrs in the presence of SAHA by checkerboard microdilution method. The format is functional.
The test system of experiment [13] is Candida albicans. Put plainly: Synergetic antifungal activity against Candida albicans 0304103 assessed as microbial growth inhibition incubated for 24 hrs in the presence of (+)-JQ1 by checkerboard microdilution method. The format is functional.
For experiment [14], the system named is Candida albicans. Put plainly: Antifungal activity against Candida albicans 10061 assessed as microbial growth inhibition. It counts as functional.
For a further experiment, the system named is [Candida] auris. Put plainly: Synergetic antifungal activity against Candida auris 0029 assessed as microbial growth inhibition incubated for 24 hrs in the presence of (S)-4-((2-(6-(4-Chlorophenyl)-1-methyl-7,8,9,10-tetrahydro-4H-benzo-(4,5)thieno[3,2-f][1,2,4]triazolo(4,3-a)(1,4)diazepin-4-yl)-acetamido)-methyl)-N-hydroxybenzamide by checkerboard microdilution method. It counts as functional. Particulars: Candidozyma auris.

For experiment [15], the system named is Candida albicans. Kind of experiment: Synergetic antifungal activity against Candida albicans 9172 assessed as microbial growth inhibition incubated for 24 hrs in the presence of (S)-4-((2-(6-(4-Chlorophenyl)-1-methyl-7,8,9,10-tetrahydro-4H-benzo-(4,5)thieno[3,2-f][1,2,4]triazolo(4,3-a)(1,4)diazepin-4-yl)-acetamido)-methyl)-N-hydroxybenzamide by checkerboard microdilution method. The format is functional.

Experiment [16] relates to Candida albicans. Put plainly: Synergetic antifungal activity against Candida albicans 9884 assessed as microbial growth inhibition incubated for 24 hrs in the presence of (S)-4-((2-(6-(4-Chlorophenyl)-1-methyl-7,8,9,10-tetrahydro-4H-benzo-(4,5)thieno[3,2-f][1,2,4]triazolo(4,3-a)(1,4)diazepin-4-yl)-acetamido)-methyl)-N-hydroxybenzamide by checkerboard microdilution method. It counts as functional.

Experiment [17] relates to Candida albicans. Put plainly: Antibiofilm activity against FLC-resistant Candida albicans 0304103 assessed as reduction in fungal growth at 32 ug/mL and measured for 48 hrs by time-growth curve assay. It counts as functional, organism-based. The note with it: dose 32.0 µg/ml.

In brackets after ≈: the same amount, converted by molar mass. Activity calls are given as the source filed them. The calls are words filed in the database; no cut-off is given here.

For orientation: MIC80 means the lowest concentration that inhibits either 80% of growth or 80% of the strains tested, depending on the study. As for `OC(Cn1cncn1)(Cn1cncn1)c1ccc(F)cc1F` [FLUCONAZOLE], the MIC80 amounted to 64 µg/mL (≈ 209 µM) in the experiment on Nakaseomyces glabratus; 0.5 µg/mL (≈ 1.63 µM) in the experiment with Candida albicans [1]; 2 µg/mL in the experiment with Candida albicans [2]; 4 µg/mL in the experiment with Candida albicans [3]; 1 µg/mL with Candida albicans [4]; 1 µg/mL in the experiment on Candida albicans [5]. Also, the MIC80 came out at 1 µg/mL in the experiment with Candida albicans [6]; 4 µg/mL in the experiment on Candida albicans [7]; 16 µg/mL in the experiment with Candida albicans [8]; 0.25 µg/mL in the experiment with Candida albicans [9]; 2 µg/mL in the experiment with Candida albicans [10]; 2 µg/mL in the experiment with Candida albicans [11]. The MIC80 with Candida albicans [12] is 4 µg/mL; with Candida albicans [13] it was > 64 µg/mL; in the experiment with Candida albicans [14] it was > 64 µg/mL; in [Candida] auris, 64 µg/mL; in the experiment with Candida albicans [15] it was 0.5 µg/mL; with Candida albicans [16], 0.25 µg/mL. Besides, the result in the experiment on Candida albicans [17] was inactive.

Values taken from ChEMBL document CHEMBL5331104, “Discovery of BRD4-HDAC Dual Inhibitors with Improved Fungal Selectivity and Potent Synergistic Antifungal Activity against Fluconazole-Resistant Candida albicans” (J Med Chem, 2023).
